Experimental findings from patent publication US6406718B1, “Orthorhombic crystalline form of fluticasone propionate and pharmaceutical compositions thereof” (SmithKline Beecham Corporation, priority 1996, dated 2002) are described below.

Assay type in all cases: physicochemical
A short description of series [1]: Water content of crystalline forms. The source says:
The water content of the two crystalline forms of fluticasone propionate produced with the apparatus described herein has also been determined, and compared with that of conventionally crystallised and micronised fluticasone propionate.

The nature of series [2]: Particle size distribution by laser diffraction (Malvern Mastersizer). How it is done:
The data for four samples of fluticasone propionate of the present invention, produced using the method and apparatus described herein, are presented in Table 2 below. The particle size was determined by laser diffraction (Malvern Mastersizer).
The particle size was determined by laser diffraction (Malvern Mastersizer).

A short description of series [3]: Dynamic bulk density (fluidisability). How it is done: The dynamic bulk density (W) is indicative of a substance's fluidisability and is defined as: [formula]
where P is the packed bulk density (g cm^−3), A is the aerated bulk density (g cm^−3) and C is the compressibility (%) where C is calculated by the equation: [formula]
Clearly, a low figure for W corresponds to a high degree of fluidisability.
The dynamic bulk density for conventionally crystallised fluticasone propionate (micronised and non-micronised) and fluticasone propionate of the present invention are shown in Table 7.

Series [4] in a line: Static charge test (drug retained on vial walls after rolling). The settings on record: after rolling drug in the vial for 2 minutes. How it is done:
A simple test was devised to ascertain a relative static charge based on the quantity of drug remaining coated to the walls of a vial after rolling a predetermined quantity of drug in the vial for 2 minutes. The greater the amount of the drug remaining on the vial, the higher the relative static charge associated with the drug substance.

Series [5] in a line: Solvent content test by NMR. As to the method:
The solvent content of fluticasone propionate of the present invention was investigated by Nuclear Magnetic Resonance (NMR) and compared to that of conventional crystallised fluticasone propionate. Each sample was tested for acetone content. (The conventionally crystallised fluticasone propionate was crystallised from acetone.) In addition, sample 5 was crystallised from methanol and therefore tested for methanol.

Series [6] in a line: Stability of Form 2 to conversion to Form 1 by XRPD. The settings on record: after 62 weeks at ambient temperature and humidity. How it is done: X-ray powder diffraction (XRPD) patterns were generated using either a Siemens D 5000 or Philips X'pert MPD. The powders were scanned over a 2θ angle range of either 1.5° to 60°, or 0° to 35°, with a 0.02-0.050 step at 3-15 seconds count time using CuKα radiation. The Siemens D5000 measures intensity as counts per second and the Philips X'pert MPD measures intensity as counts.

Series [7] is described as follows: Particle shape by scanning electron microscopy. How it is done:
The particle shape was determined by scanning electron microscopy. Data for three samples of fluticasone propionate of the present invention, produced using the method and apparatus described herein, are presented in FIGS. 5 to 7.

The mark [8] stands for this setting: drug material used in Inhaler Type A for cascade impaction.
[9] abbreviates: laser diffraction (Malvern Mastersizer).

Regarding “fluticasone propionate [Conventionally crystallised fluticasone propionate (micronis] [reference compound]”, the Water content in series [1] is reported as less than 0.1 % w/w. The “Mean particle size” value in series [2] (setting [8]) was 1.8 microns. Besides, in series [2] (setting [9]), the “% <5 μm” value is greater than 90%, the “% <10 μm” value is greater than 95%, the Mean particle size is recorded as 1-3 μm and the “Uniformity Index” value was found to be 15. Also, the “Dynamic Bulk Density (W)” value in series [3] stood at 0.21 g cm^−3. Further, in series [4], the “% Drug retained on vial” value stood at 4.5%. Further, in series [5], the “Acetone Content” value was “typically 0.7 % w/w”.
As to “fluticasone propionate [Conventionally crystallised fluticasone propionate (non-micr] [reference compound]”, the “Dynamic Bulk Density (W)” value in series [3] is 0.21 g cm^−3.
In series [1], “fluticasone propionate [Form 1 fluticasone propionate prepared as described herein]” displayed a Water content of less than 0.1 % w/w.
As for “fluticasone propionate [Form 2 fluticasone propionate prepared as described herein]”, the Water content in series [1] was greater than 0.3 % w/w. The “Conversion of Form 2 to Form 1” value in series [6] is “no conversion was seen”.
fluticasone propionate [Sample 1]: in series [2] (setting [9]), the “% <5 μm” value was found to be 48%, the “% <10 μm” value was found to be 81%, the Mean particle size stood at 5.2 μm and the “Uniformity Index” value is recorded as 12.
For fluticasone propionate [Sample 2], in series [2] (setting [9]), the “% <5 μm” value was 20%, the “% <10 μm” value was found to be 48%, the Mean particle size turned out to be 10.4 μm and the “Uniformity Index” value worked out at 13.
fluticasone propionate [Sample 3]: in series [2] (setting [9]), the “% <5 μm” value came to 6%, the “% <10 μm” value came out at 13%, the Mean particle size is on record as 31.0 μm and the “Uniformity Index” value is on record as 12. The “Dynamic Bulk Density (W)” value in series [3] was determined as 0.17 g cm^−3.
Take fluticasone propionate [Sample 4]: in series [2] (setting [9]), the “% <5 μm” value is reported as 68%, the “% <10 μm” value worked out at 83%, the Mean particle size worked out at 2.8 μm and the “Uniformity Index” value was 4.
Consider fluticasone propionate [Sample 5], for which the Particle shape entry in series [7] is “acicular”. Moreover, in series [5], the “Acetone Content” value is given as “Not Detected” and the “Methanol Content” value is “Not Detected”.
Regarding fluticasone propionate [Sample 6], the Particle shape entry in series [7] is on record as “flake-like”. In series [2] (setting [9]), the “% <5 μm” value is reported as 24%, the “% <10 μm” value is listed as 51%, the Mean particle size is 9.7 μm and the “Uniformity Index” value is listed as 10.
With fluticasone propionate [Sample 7], the Particle shape result in series [7] was “equant”.
Regarding fluticasone propionate [Sample 8], in series [2] (setting [9]), the “% <5 μm” value came out at 23%, the “% <10 μm” value is 53%, the Mean particle size amounted to 9.4 μm and the “Uniformity Index” value amounted to 11. The “Acetone Content” value in series [5] is recorded as “Not Detected”.
Take fluticasone propionate [Sample 9]: in series [2] (setting [9]), the “% <5 μm” value stood at 23%, the “% <10 μm” value was 52%, the Mean particle size stood at 9.6 μm and the “Uniformity Index” value is given as 12.
Regarding fluticasone propionate [Sample 12], the “Dynamic Bulk Density (W)” value in series [3] was determined as 0.05 g cm^−3.
Same read-out and setting: to fluticasone propionate [Sample 13] belongs 0.06 g cm^−3.
Regarding fluticasone propionate [Sample 14], the “% Drug retained on vial” value in series [4] was 3.8%.
Turning to fluticasone propionate [Sample 15], the “% Drug retained on vial” value in series [4] amounted to 4.2%. In addition, in series [5], the “Acetone Content” value is “Not Detected”.
fluticasone propionate [Sample 16]: in series [4], the “% Drug retained on vial” value stood at 7.6%.
With fluticasone propionate [Sample 17], the “% Drug retained on vial” value in series [4] came out at 8.6%.
Consider fluticasone propionate [Sample 19], for which the “Mean particle size” value in series [2] (setting [8]) amounted to 4.8 microns.
